Test system: collagen type I alpha I chain (COL1A1) gene, normal human dermal fibroblasts (NHDF)
Assay: Fold change in gene expression of COL1A1 in normal human dermal fibroblasts (qPCR, normalized to ACTB)
Assay type: cell-based
Settings: 48 hours, relative to blank control (1.0)
Method: The normal human dermal fibroblasts (NHDF) (Biocell, Xi'an, China, Lot: Fb20081902) were incubated in medium together with or without actives for 48 hours. After incubation, the total RNA for each NHDF was extracted using RNAex Pro reagent (Accurate Biotechnology, Cat: AG21102) according to manufacturer's protocol.
The extracted RNA was quantified using Nanodrop spectrometer (Thermo Fisher Scientific, Waltham, MA, US) and reverse transcribed to generate the template cDNA using the Evo M-MLV RT Premix for qPCR (Accurate Biotechnology, Cat: AG11706) according to manufacturer's protocol. Gene expression of COL1A1 gene was analyzed by polymerase chain reaction (PCR) using SYBR® Green Premix Pro Taq HS qPCR Kit (Accurate Biotechnology, AG11701). The actin beta (ACTB) gene was selected as the housekeeping gene and all data on relative expression of the target genes was normalized to ACTB gene. The fold changes in expression were calculated relative to the blank control (medium having no active).

Molecule | Fold change of COL1A1 expression (1 μM of RP (group B)) | Fold change of COL1A1 expression (10 μM of RP (group E)) | Fold change of COL1A1 expression (5 μM of LCC (group D)) | Fold change of COL1A1 expression (10 μM of LCC (group G)) | Fold change of COL1A1 expression (50 μM of LCC (group A))
CCC(=O)OC/C=C(C)/C=C/C=C(C)/C=C/C1=C(C)CCCC1(C)C [RP, Retinyl propionate] | 1.4 fold change | 1.5 fold change |  |  | 
Lysine carboxymethyl cysteinate [LCC] |  |  | 1.4 fold change | 1.5 fold change | 1.3 fold change

— patent US20260373038A1, “A PERSONAL CARE COMPOSITION” (Conopco, Inc., d/b/a UNILEVER, priority 2022, published 2026)
